Read-outs that look alike come from different tables or passages of the source.
How the values were obtained:
[1] = test system: MiaPaca-2 cells; test: MiaPaca-2 Cell Proliferation Assay; type: cell-based; settings: Homo sapiens
Method in brief: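 Viability was read as resazurin fluorescence (540 nm excitation, 600 nm emission) after 5–6 h with dye. Compounds were tested as serial dilutions in triplicate, with IC50 derived from the dose–response.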

[2] = test system: Pa16c cells; test: Pa16c Cell Proliferation Assay; type: cell-based; settings: Table 2, read-out: Inhibition of cell proliferation in Pa16c (IC50 class)
Method in brief: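 Proliferation read-out: resazurin fluorescence (540 nm excitation, 600 nm emission) after an extra 18 to 24 h. Before that, compound dilution series (triplicate) stayed on 750 Pa16c cells/well in complete DMEM/10% FBS for 67 to 72 h at 37° C. IC50 values derived from the curves.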

[3] = MIA PaCa-2, MiaPaca-2 cells, Table 2, read-out: Inhibition of cell proliferation in MiaPaca-2 (IC50 class)
[4] = MIA PaCa-2, Table 3, read-out: MiaPaca-2 (IC50 class)

IC50 [1, 3] [nM] | IC50 [1, 4] [nM] | SMILES | IC50 [2] [nM]
100 to 500 | 100 to 500 | Cc1ccc(NC(=O)c2cnc(C(F)(F)F)nc2)cc1-c1ccnc(-c2ccnc(NC(=O)C3CC3)c2)c1 [Example 17] | < 100
< 100 | < 100 | Cc1ccc(NC(=O)c2cc(C(C)(F)F)cnn2)cc1-c1ccnc(-c2ccnc(NC(=O)C3CC3)c2)c1 [Example 57] | 100 to 500
< 100 | < 100 | Cc1ccc(NC(=O)c2cc(C3CC3)cnn2)cc1-c1ccnc(-c2ccnc(NC(=O)C3CC3)c2)c1 [Example 43] | < 100

The next lines start with the compound.

SMILES | IC50 [1, 3] [nM] | IC50 [1, 4] [nM] | IC50 [2] [nM]
Cc1ccc(NC(=O)c2cc(C#N)cnn2)cc1-c1ccnc(-c2ccnc(NC(=O)C3CC3)c2)c1 [Example 96, 5-cyano-N-(3-(2′-(cyclopropanecarboxamido)-[2,4′-bipyridin]-4-yl)-4-methylphenyl)pyridazine-3-carboxamide] | < 100 | < 100 | 1000 to 10000
Cc1ccc(NC(=O)c2cc(C(F)(F)F)cnn2)cc1-c1ccnc(-c2ccnc(NC(=O)C3CC3)c2)c1 [Example 67] | < 100 | < 100 | < 100
